Laboratory results reported in US20100041089A1, “IMPROVED METHOD FOR DETECTING CHEMICAL […]” (priority 2006, published 2010).

Test system: yeast genes (expressed mRNA)
Experiment: DNA chip measurement of expressed mRNA of yeast genes after culture with a toxic chemical substance
Assay type: cell-based, Saccharomyces cerevisiae S288C
In short: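 Two-hour exposure of growing S. cerevisiae S288C (YPD, 25° C) to a sublethal toxicant preceded RNA isolation. Fluorescent cDNA was hybridized to a whole-genome array; a treated-to-untreated signal ratio of two or more was taken as significant.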

Structure (SMILES): CCCCC[C@H](O)CC(=O)CCc1ccc(O)c(OC)c1 [(13), Gingerol]
- The level of expressed mRNA in the presence of chemical substance/The level of expressed mRNA in the absence of chemical substance (yeast gene YKL065C, cultured two hours with substance): 3.0
- level of expressed mRNA in the presence of chemical substance / level in the absence of chemical substance (yeast gene YKL097C, cultured two hours with the chemical substance): 0.9
- level of expressed mRNA in the presence of chemical substance / level in the absence of chemical substance (yeast gene YKL100C, cultured two hours with the chemical substance): 1.3
- The level of expressed mRNA in the presence of chemical substance/The level of expressed mRNA in the absence of chemical substance (yeast gene YKL153W, cultured two hours with substance): 2.4
- The level of expressed mRNA in the presence of chemical substance/The level of expressed mRNA in the absence of chemical substance (yeast gene YKL194C, mitochondria-located protein gene, cultured two hours with substance): 1.1
- The level of expressed mRNA in the presence of chemical substance/The level of expressed mRNA in the absence of chemical substance (yeast gene YKL218C): 5.1
- The level of expressed mRNA in the presence of chemical substance/The level of expressed mRNA in the absence of chemical substance (yeast gene YKR018C, cultured two hours with substance): 3.0
- level of expressed mRNA in the presence of chemical substance / level in the absence of chemical substance (yeast gene YKR040C, cultured two hours with the chemical substance): 0.6
- The level of expressed mRNA in the presence of chemical substance/The level of expressed mRNA in the absence of chemical substance (yeast gene YKR046C, cultured two hours with substance): 2.8
- The level of expressed mRNA in the presence of chemical substance/The level of expressed mRNA in the absence of chemical substance (yeast gene YKR075C, cultured two hours with substance): 3.8
- The level of expressed mRNA in the presence of chemical substance/The level of expressed mRNA in the absence of chemical substance (yeast gene YLL041C, mitochondria-located protein gene, cultured two hours with substance): 1.0
- The level of expressed mRNA in the presence of chemical substance/The level of expressed mRNA in the absence of chemical substance (yeast gene YLR041W, cultured two hours with the chemical substance): 0.3
- The level of expressed mRNA in the presence of chemical substance/The level of expressed mRNA in the absence of chemical substance (yeast gene YLR217W, cultured two hours with substance): 3.8
- level of expressed mRNA in the presence of chemical substance / level in the absence of chemical substance (yeast gene YLR226W, cultured two hours with the chemical substance): 0.7
- level of expressed mRNA in the presence of chemical substance / level in the absence of chemical substance (yeast gene YLR338W, cultured two hours with the chemical substance): 1.2
- The level of expressed mRNA in the presence of chemical substance/The level of expressed mRNA in the absence of chemical substance (yeast gene YLR340W): 0.1
- The level of expressed mRNA in the presence of chemical substance/The level of expressed mRNA in the absence of chemical substance (yeast gene YLR350W, cultured two hours with substance): 4.5
- The level of expressed mRNA in the presence of chemical substance/The level of expressed mRNA in the absence of chemical substance (yeast gene YLR387C, cultured two hours with substance): 3.6
- The level of expressed mRNA in the presence of chemical substance/The level of expressed mRNA in the absence of chemical substance (yeast gene YLR388W): 0.1
- level of expressed mRNA in the presence of chemical substance / level in the absence of chemical substance (yeast gene YLR392C, cultured two hours with the chemical substance): 1.4
- level of expressed mRNA in the presence of chemical substance / level in the absence of chemical substance (yeast gene YLR415C, cultured two hours with the chemical substance): 1.0
- level of expressed mRNA in the presence of chemical substance / level in the absence of chemical substance (yeast gene YLR427W, cultured two hours with the chemical substance): 2.5
- level of expressed mRNA in the presence of chemical substance / level in the absence of chemical substance (yeast gene YML013W, cultured two hours with the chemical substance): 1.2
- level of expressed mRNA in the presence of chemical substance / level in the absence of chemical substance (yeast gene YML029W, cultured two hours with the chemical substance): 2.0
- level of expressed mRNA in the presence of chemical substance / level in the absence of chemical substance (yeast gene YML041C, cultured two hours with the chemical substance): 1.2
- The level of expressed mRNA in the presence of chemical substance/The level of expressed mRNA in the absence of chemical substance (yeast gene YML054C, cultured for two hours with substance): 2.8
- level of expressed mRNA in the presence of chemical substance / level in the absence of chemical substance (yeast gene YML079W, cultured two hours with the chemical substance): 1.6
- The level of expressed mRNA in the presence of chemical substance/The level of expressed mRNA in the absence of chemical substance (yeast gene YML100W, cultured for two hours with substance): 3.8
- level of expressed mRNA in the presence of chemical substance / level in the absence of chemical substance (yeast gene YMR068W, cultured two hours with the chemical substance): 1.4
- level of expressed mRNA in the presence of chemical substance / level in the absence of chemical substance (yeast gene YMR071C, cultured two hours with the chemical substance): 1.3
- The level of expressed mRNA in the presence of chemical substance/The level of expressed mRNA in the absence of chemical substance (yeast gene YMR095C, cultured two hours with substance): 3.4
- level of expressed mRNA in the presence of chemical substance / level in the absence of chemical substance (yeast gene YMR160W, cultured two hours with the chemical substance): 1.6
- The level of expressed mRNA in the presence of chemical substance/The level of expressed mRNA in the absence of chemical substance (yeast gene YMR191W, cultured two hours with substance): 3.4
- The level of expressed mRNA in the presence of chemical substance/The level of expressed mRNA in the absence of chemical substance (yeast gene YMR203W, mitochondria-located protein gene, cultured two hours with substance): 1.1
- The level of expressed mRNA in the presence of chemical substance/The level of expressed mRNA in the absence of chemical substance (yeast gene YMR210W, cultured two hours with the chemical substance, DNA chip fluorescence ratio): 1.0
- level of expressed mRNA in the presence of chemical substance / level in the absence of chemical substance (yeast gene YNL026W, cultured two hours with the chemical substance): 1.7
- level of expressed mRNA in the presence of chemical substance / level in the absence of chemical substance (yeast gene YNL058C, cultured two hours with the chemical substance): 0.6
- level of expressed mRNA in the presence of chemical substance / level in the absence of chemical substance (yeast gene YNL063W, cultured two hours with the chemical substance): 1.5
- The level of expressed mRNA in the presence of chemical substance/The level of expressed mRNA in the absence of chemical substance (yeast gene YNL069C): 0.1
- The level of expressed mRNA in the presence of chemical substance/The level of expressed mRNA in the absence of chemical substance (yeast gene YNL115C, cultured two hours with substance): 2.5
- The level of expressed mRNA in the presence of chemical substance/The level of expressed mRNA in the absence of chemical substance (yeast gene YNL155W, cultured two hours with substance): 4.4
- level of expressed mRNA in the presence of chemical substance / level in the absence of chemical substance (yeast gene YNL176C, cultured two hours with the chemical substance): 0.6
- level of expressed mRNA in the presence of chemical substance / level in the absence of chemical substance (yeast gene YNL194C, cultured two hours with the chemical substance): 1.5
- level of expressed mRNA in the presence of chemical substance / level in the absence of chemical substance (yeast gene YNL200C, cultured two hours with the chemical substance): 1.1
- The level of expressed mRNA in the presence of chemical substance/The level of expressed mRNA in the absence of chemical substance (yeast gene YNL208W, cultured two hours with substance): 1.7
- The level of expressed mRNA in the presence of chemical substance/The level of expressed mRNA in the absence of chemical substance (yeast gene YNL234W, cultured two hours with substance): 2.5
- The level of expressed mRNA in the presence of chemical substance/The level of expressed mRNA in the absence of chemical substance (yeast gene YNL241C, cultured for two hours with substance): 4.9
- level of expressed mRNA in the presence of chemical substance / level in the absence of chemical substance (yeast gene YNL253W, cultured two hours with the chemical substance): 1.1
- level of expressed mRNA in the presence of chemical substance / level in the absence of chemical substance (yeast gene YNL276C, cultured two hours with the chemical substance): 1.5
- level of expressed mRNA in the presence of chemical substance / level in the absence of chemical substance (yeast gene YNR051C, cultured two hours with the chemical substance): 2.1
- level of expressed mRNA in the presence of chemical substance / level in the absence of chemical substance (yeast gene YOL026C, cultured two hours with the chemical substance): 1.2
- The level of expressed mRNA in the presence of chemical substance/The level of expressed mRNA in the absence of chemical substance (yeast gene YOL030W, cultured two hours with the chemical substance): 1.7
- The level of expressed mRNA in the presence of chemical substance/The level of expressed mRNA in the absence of chemical substance (yeast gene YOL036W, cultured two hours with substance): 2.5
- The level of expressed mRNA in the presence of chemical substance/The level of expressed mRNA in the absence of chemical substance (yeast gene YOL039W): 0.1
- The level of expressed mRNA in the presence of chemical substance/The level of expressed mRNA in the absence of chemical substance (yeast gene YOL084W, cultured two hours with substance): 6.4
- The level of expressed mRNA in the presence of chemical substance/The level of expressed mRNA in the absence of chemical substance (yeast gene YOL120C): 0.1
- level of expressed mRNA in the presence of chemical substance / level in the absence of chemical substance (yeast gene YOR022C, cultured two hours with the chemical substance): 1.7
- level of expressed mRNA in the presence of chemical substance / level in the absence of chemical substance (yeast gene YOR087W, cultured two hours with the chemical substance): 1.2
- level of expressed mRNA in the presence of chemical substance / level in the absence of chemical substance (yeast gene YOR138C, cultured two hours with the chemical substance): 1.8
- The level of expressed mRNA in the presence of chemical substance/The level of expressed mRNA in the absence of chemical substance (yeast gene YOR152C, cultured two hours with substance): 7.4
- The level of expressed mRNA in the presence of chemical substance/The level of expressed mRNA in the absence of chemical substance (yeast gene YOR153W): 11.8
- The level of expressed mRNA in the presence of chemical substance/The level of expressed mRNA in the absence of chemical substance (yeast gene YOR173W, cultured two hours with substance): 3.8
- The level of expressed mRNA in the presence of chemical substance/The level of expressed mRNA in the absence of chemical substance (yeast gene YOR187W, mitochondria-located protein gene, cultured two hours with substance): 0.7
- level of expressed mRNA in the presence of chemical substance / level in the absence of chemical substance (yeast gene YOR253W, cultured two hours with the chemical substance): 0.5
- level of expressed mRNA in the presence of chemical substance / level in the absence of chemical substance (yeast gene YOR267C, cultured two hours with the chemical substance): 1.4
- level of expressed mRNA in the presence of chemical substance / level in the absence of chemical substance (yeast gene YOR325W, cultured two hours with the chemical substance): 0.6
- The level of expressed mRNA in the presence of chemical substance/The level of expressed mRNA in the absence of chemical substance (yeast gene YOR382W, cultured two hours with substance): 1.7
- The level of expressed mRNA in the presence of chemical substance/The level of expressed mRNA in the absence of chemical substance (yeast gene YOR385W, cultured two hours with the substance): 2.8
- level of expressed mRNA in the presence of chemical substance / level in the absence of chemical substance (yeast gene YPL005W, cultured two hours with the chemical substance): 1.2
- The level of expressed mRNA in the presence of chemical substance/The level of expressed mRNA in the absence of chemical substance (yeast gene YPL087W, cultured two hours with substance): 4.4
- level of expressed mRNA in the presence of chemical substance / level in the absence of chemical substance (yeast gene YPL150W, cultured two hours with the chemical substance): 2.1
- level of expressed mRNA in the presence of chemical substance / level in the absence of chemical substance (yeast gene YPL152W, cultured two hours with the chemical substance): 1.4
- level of expressed mRNA in the presence of chemical substance / level in the absence of chemical substance (yeast gene YPL168W, cultured two hours with the chemical substance): 1.0
- level of expressed mRNA in the presence of chemical substance / level in the absence of chemical substance (yeast gene YPL180W, cultured two hours with the chemical substance): 1.5
- level of expressed mRNA in the presence of chemical substance / level in the absence of chemical substance (yeast gene YPL188W, cultured two hours with the chemical substance): 0.9
- level of expressed mRNA in the presence of chemical substance / level in the absence of chemical substance (yeast gene YPL221W, cultured two hours with the chemical substance): 1.0
- The level of expressed mRNA in the presence of chemical substance/The level of expressed mRNA in the absence of chemical substance (yeast gene YPL222W, cultured two hours with substance): 3.0
- level of expressed mRNA in the presence of chemical substance / level in the absence of chemical substance (yeast gene YPL225W, cultured two hours with the chemical substance): 0.8
- The level of expressed mRNA in the presence of chemical substance/The level of expressed mRNA in the absence of chemical substance (yeast gene YPR037C, mitochondria-located protein gene, cultured two hours with substance): 1.0
- level of expressed mRNA in the presence of chemical substance / level in the absence of chemical substance (yeast gene YPR049C, cultured two hours with the chemical substance): 1.6
- The level of expressed mRNA in the presence of chemical substance/The level of expressed mRNA in the absence of chemical substance (yeast gene YPR134W, mitochondria-located protein gene, cultured two hours with substance): 1.1
- level of expressed mRNA in the presence of chemical substance / level in the absence of chemical substance (yeast gene YPR146C, cultured two hours with the chemical substance): 1.3
- level of expressed mRNA in the presence of chemical substance / level in the absence of chemical substance (yeast gene YPR148C, cultured two hours with the chemical substance): 1.2
- level of expressed mRNA in the presence of chemical substance / level in the absence of chemical substance (yeast gene YPR172W, cultured two hours with the chemical substance): 1.3
